# Laboratory results taken from PubChem BioAssay (NCI).
#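 Results reflect a 48-hour exposure of cells in 96-well plates to compound at five concentrations. TGI marks complete inhibition of growth.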
# Assays:
# Assay in all cases: inhibition of tumour cell growth, NCI panel, 48 h
# [1] = tested on: 786-0 renal
# [2] = tested on: A549 NSCLC
# [3] = tested on: ACHN renal
# [4] = tested on: CAKI-1 renal
# [5] = tested on: CCRF-CEM leukemia
# [6] = tested on: COLO 205 colon
# [7] = tested on: DLD-1 colon
# [8] = tested on: DMS 114 small cell lung
# [9] = tested on: DMS 273 small cell lung
# [10] = tested on: EKVX NSCLC
# [11] = tested on: HCC-2998 colon
# [12] = tested on: HCT-116 colon
# [13] = tested on: HCT-15 colon
# [14] = tested on: HL-60(TB) leukemia
# [15] = tested on: HOP-18 NSCLC
# [16] = tested on: HOP-62 NSCLC
# [17] = tested on: HOP-92 NSCLC
# [18] = tested on: HT29 colon
# [19] = tested on: IGROV1 ovarian
# [20] = tested on: K-562 leukemia
# [21] = tested on: KM12 colon
# [22] = tested on: KM20L2 colon
# [23] = tested on: LOX IMVI melanoma
# [24] = tested on: LXFL 529 NSCLC
# [25] = tested on: M14 melanoma
# [26] = tested on: M19-MEL melanoma
# [27] = tested on: MALME-3M melanoma
# [28] = tested on: MOLT-4 leukemia
# [29] = tested on: NCI-H226 lung
# [30] = tested on: NCI-H460 lung
# [31] = tested on: OVCAR-3 ovarian
# [32] = tested on: OVCAR-4 ovarian
# [33] = tested on: OVCAR-5 ovarian
# [34] = tested on: OVCAR-8 ovarian
# [35] = tested on: RPMI-8226 leukemia
# [36] = tested on: RXF 393 renal
# [37] = tested on: SF-295 CNS
# [38] = tested on: SK-MEL-2 melanoma
# [39] = tested on: SK-MEL-28 melanoma
# [40] = tested on: SK-MEL-5 melanoma
# [41] = tested on: SK-OV-3 ovarian
# [42] = tested on: SN12C renal
# [43] = tested on: SNB-19 CNS
# [44] = tested on: SNB-75 CNS
# [45] = tested on: SNB-78 CNS
# [46] = tested on: SW-620 colon
# [47] = tested on: TK-10 renal
# [48] = tested on: U251 CNS
# [49] = tested on: UACC-257 melanoma
# [50] = tested on: UACC-62 melanoma
# [51] = tested on: UO-31 renal
# [52] = tested on: XF 498 CNS
# [53] = tested on: A498 renal
# [54] = tested on: BT-549 breast
# [55] = tested on: DU-145 prostate
# [56] = tested on: HS 578T breast
# [57] = tested on: MCF7 breast
# [58] = tested on: MDA-MB-231 breast
# [59] = tested on: MDA-MB-435
# [60] = tested on: MDA-N
# [61] = tested on: NCI-H23 lung
# [62] = tested on: NCI-H522 lung
# [63] = tested on: NCI/ADR-RES ovarian
# [64] = tested on: PC-3 prostate
# [65] = tested on: SF-268 CNS
# [66] = tested on: SF-539 CNS
# [67] = tested on: SR leukemia
# [68] = tested on: T-47D breast
# [69] = tested on: RXF-631 renal
compound,measurement,setting,value
CN[C@H](C)[C@@H](OC)c1ccccc1,TGI,[1],> 100 µM
same,TGI,[2],> 100 µM
same,TGI,[3],> 100 µM
same,TGI,[4],> 100 µM
same,TGI,[5],> 100 µM
same,TGI,[6],> 100 µM
same,TGI,[7],> 100 µM
same,TGI,[8],> 100 µM
same,TGI,[9],> 100 µM
same,TGI,[10],> 100 µM
same,TGI,[11],> 100 µM
same,TGI,[12],> 100 µM
same,TGI,[13],> 100 µM
same,TGI,[14],> 100 µM
same,TGI,[15],> 100 µM
same,TGI,[16],> 100 µM
same,TGI,[17],> 100 µM
same,TGI,[18],> 100 µM
same,TGI,[19],> 100 µM
same,TGI,[20],> 100 µM
same,TGI,[21],> 100 µM
same,TGI,[22],> 100 µM
same,TGI,[23],> 100 µM
same,TGI,[24],> 100 µM
same,TGI,[25],> 100 µM
same,TGI,[26],> 100 µM
same,TGI,[27],> 100 µM
same,TGI,[28],> 100 µM
same,TGI,[29],> 100 µM
same,TGI,[30],> 100 µM
same,TGI,[31],> 100 µM
same,TGI,[32],> 100 µM
same,TGI,[33],> 100 µM
same,TGI,[34],> 100 µM
same,TGI,[35],> 100 µM
same,TGI,[36],> 100 µM
same,TGI,[37],> 100 µM
same,TGI,[38],> 100 µM
same,TGI,[39],> 100 µM
same,TGI,[40],> 100 µM
same,TGI,[41],> 100 µM
same,TGI,[42],> 100 µM
same,TGI,[43],> 100 µM
same,TGI,[44],> 100 µM
same,TGI,[45],> 100 µM
same,TGI,[46],> 100 µM
same,TGI,[47],> 100 µM
same,TGI,[48],> 100 µM
same,TGI,[49],> 100 µM
same,TGI,[50],> 100 µM
same,TGI,[51],> 100 µM
same,TGI,[52],> 100 µM
S=C(S)N1CCOCC1,TGI,[1],> 41.4 µM
same,TGI,[53],> 54.4 µM
same,TGI,[2],> 100 µM
same,TGI,[3],> 100 µM
same,TGI,[54],> 100 µM
same,TGI,[4],> 34 µM
same,TGI,[5],4.42 µM
same,TGI,[6],5.98 µM
same,TGI,[7],5.22 µM
same,TGI,[8],0.904 µM
same,TGI,[9],21.1 µM
same,TGI,[55],> 100 µM
same,TGI,[10],> 100 µM
same,TGI,[11],> 31.1 µM
same,TGI,[12],24.9 µM
same,TGI,[13],> 60.1 µM
same,TGI,[14],14.3 µM
same,TGI,[15],> 100 µM
same,TGI,[16],> 100 µM
same,TGI,[17],> 100 µM
same,TGI,[56],> 100 µM
same,TGI,[18],17.1 µM
same,TGI,[19],> 100 µM
same,TGI,[20],24.9 µM
same,TGI,[21],> 100 µM
same,TGI,[22],> 53.2 µM
same,TGI,[23],> 78.3 µM
same,TGI,[24],> 100 µM
same,TGI,[25],98.4 µM
same,TGI,[26],12.4 µM
same,TGI,[27],> 64.2 µM
same,TGI,[57],> 100 µM
same,TGI,[58],> 100 µM
same,TGI,[59],> 100 µM
same,TGI,[60],> 100 µM
same,TGI,[28],9.89 µM
same,TGI,[29],> 100 µM
same,TGI,[61],> 34 µM
same,TGI,[30],> 29.6 µM
same,TGI,[62],3.98 µM
same,TGI,[63],> 100 µM
same,TGI,[31],15.8 µM
same,TGI,[32],> 34.5 µM
same,TGI,[33],> 100 µM
same,TGI,[34],> 100 µM
same,TGI,[64],> 100 µM
same,TGI,[35],42.6 µM
same,TGI,[36],12.7 µM
same,TGI,[65],> 100 µM
same,TGI,[37],> 100 µM
same,TGI,[66],> 83.6 µM
same,TGI,[38],> 100 µM
same,TGI,[39],82.2 µM
same,TGI,[40],> 63.9 µM
same,TGI,[41],> 100 µM
same,TGI,[42],> 100 µM
same,TGI,[43],> 100 µM
same,TGI,[44],> 29.8 µM
same,TGI,[45],> 100 µM
same,TGI,[67],14.8 µM
same,TGI,[46],16.5 µM
same,TGI,[68],> 100 µM
same,TGI,[47],> 100 µM
same,TGI,[48],25.8 µM
same,TGI,[49],> 100 µM
same,TGI,[50],15 µM
same,TGI,[51],> 100 µM
same,TGI,[52],16 µM
CCc1ccccc1NC(=O)C1=C(C)NC(C)=C(C(=O)Nc2ccccc2CC)C1c1cccc([N+](=O)[O-])c1,TGI,[1],> 100 µM
same,TGI,[53],93.8 µM
same,TGI,[2],> 100 µM
same,TGI,[3],> 100 µM
same,TGI,[4],> 100 µM
same,TGI,[5],> 100 µM
same,TGI,[6],> 100 µM
same,TGI,[7],> 100 µM
same,TGI,[8],> 100 µM
same,TGI,[10],> 100 µM
same,TGI,[11],62 µM
same,TGI,[14],88.7 µM
same,TGI,[16],> 100 µM
same,TGI,[17],62.8 µM
same,TGI,[18],> 100 µM
same,TGI,[19],> 100 µM
same,TGI,[20],> 100 µM
same,TGI,[21],> 100 µM
same,TGI,[22],> 100 µM
same,TGI,[23],> 100 µM
same,TGI,[24],> 100 µM
same,TGI,[25],> 100 µM
same,TGI,[26],> 100 µM
same,TGI,[27],> 100 µM
same,TGI,[28],> 100 µM
same,TGI,[29],> 100 µM
same,TGI,[61],> 100 µM
same,TGI,[30],> 100 µM
same,TGI,[62],97.8 µM
same,TGI,[31],> 100 µM
same,TGI,[32],> 100 µM
same,TGI,[33],> 100 µM
same,TGI,[34],> 100 µM
same,TGI,[35],> 100 µM
same,TGI,[36],> 100 µM
same,TGI,[69],> 100 µM
same,TGI,[65],> 100 µM
same,TGI,[37],> 100 µM
same,TGI,[66],> 100 µM
same,TGI,[38],> 100 µM
same,TGI,[39],> 100 µM
same,TGI,[40],> 100 µM
same,TGI,[41],> 100 µM
same,TGI,[42],> 100 µM
same,TGI,[43],> 100 µM
same,TGI,[44],> 100 µM
same,TGI,[45],> 100 µM
same,TGI,[46],> 100 µM
same,TGI,[47],> 100 µM
same,TGI,[48],> 100 µM
same,TGI,[49],> 100 µM
same,TGI,[51],> 100 µM
Clc1ccc(C2=Nc3ccccc3SC(c3cccs3)C2)cc1 (centres undefined),TGI,[1],29.8 µM
same,TGI,[53],28.1 µM
same,TGI,[2],36 µM
same,TGI,[3],28.7 µM
same,TGI,[4],31.3 µM
same,TGI,[6],31.2 µM
same,TGI,[7],22 µM
same,TGI,[8],31.2 µM
same,TGI,[9],27.1 µM
same,TGI,[10],31.3 µM
same,TGI,[11],30.9 µM
same,TGI,[12],20 µM
same,TGI,[13],27.1 µM
same,TGI,[15],35 µM
same,TGI,[16],39.3 µM
same,TGI,[18],27.8 µM
same,TGI,[19],28 µM
same,TGI,[20],33.7 µM
same,TGI,[21],22.5 µM
same,TGI,[22],30.2 µM
same,TGI,[23],19.9 µM
same,TGI,[24],31.3 µM
same,TGI,[25],30 µM
same,TGI,[26],28.8 µM
same,TGI,[28],> 100 µM
same,TGI,[61],27.2 µM
same,TGI,[30],32 µM
same,TGI,[62],32 µM
same,TGI,[31],24 µM
same,TGI,[32],27.2 µM
same,TGI,[33],27.6 µM
same,TGI,[34],30.4 µM
same,TGI,[35],7.26 µM
same,TGI,[36],22.7 µM
same,TGI,[65],30.4 µM
same,TGI,[37],28.2 µM
same,TGI,[66],32 µM
same,TGI,[39],31.8 µM
same,TGI,[40],30.2 µM
same,TGI,[41],30.5 µM
same,TGI,[42],29.3 µM
same,TGI,[43],30.3 µM
same,TGI,[44],34.1 µM
same,TGI,[45],85.2 µM
same,TGI,[67],62.4 µM
same,TGI,[46],25.8 µM
same,TGI,[47],31.1 µM
same,TGI,[48],24.1 µM
same,TGI,[49],29.4 µM
same,TGI,[50],29.1 µM
same,TGI,[51],26.4 µM
same,TGI,[52],29.8 µM
